Data from patent publication US12377103B2, “Use of bromodomain-containing protein 9 inhibitors to treat and/or prevent uterine leiomyosarcoma” (The University of Chicago, priority 2022, dated 2025).

Tests used:
[1] = test system: ovarian cancer; settings: associated with cell cycle arrest, apoptosis induction, metabolic alterations; cited from earlier work
[2] = test system: macrophages; settings: cited from earlier work
[3] = test system: SK-UT-1 cells; assay: Proliferation assay (trypan blue exclusion), SK-UT-1; assay type: cell-based, human; settings: 1-25 μM, 48 h, FIG. 4C
Procedure: (§1) The leiomyosarcoma (uLMS) cell line (SK-UT1, ATCC® HTB-114TM) (ATCC, Manassas, VA, USA) was cultured and maintained in ATCC-formulated Eagle's Minimum Essential Medium with 10% of fetal bovine serum. In addition, the uterine sarcoma cell line (MES-SA) (ATCC, Manassas, VA, USA) was cultured and maintained in McCoy's 5A medium. The immortalized human leiomyoma cell line (HuLM) and immortalized human uterine smooth muscle (UTSM) cells were a generous gift from Professor Darlene Dixon. The HuLM and UTSM cell lines were cultured and maintained in phenol red-free, Dulbecco's Modified Eagle Medium: Nutrient Mixture F-12. These cell lines, covering the spectrum from normal cell line (UTSM), benign uterine tumor cell line (HuLM), and uterine malignant cell lines (uLMS), were used to better understand the tumor progression linking to the BRD9 dysregulation in uLMS. BRD9 inhibitor (iBRD9) TP-472 was purchased from Tocris (Cat #6000, Minneapolis, MN, USA).
(§2) Cell proliferation was measured using trypan blue exclusion assay; 4 104 cells per well were seeded into 12-well tissue culture plates, treated with the iBRD9 (TP-472) at a dose range from 1-25 μM for 48 h. This assay was performed three times in triplicate.
(§3) Trypan blue exclusion assay was performed in SK-UT-1 and MES-SA cell lines treated for 48 h with TP-472 at dose ranges from 1-25 μM.

[4] = test system: MES-SA cells; assay: Proliferation assay (trypan blue exclusion), MES-SA; assay type: cell-based, human; settings: 1-25 μM, 48 h, FIG. 4D
Procedure: as §1, §2, §3

[5] = test system: BCL-2; assay: Western blot of BCL-2 protein levels in SK-UT-1 cells; assay type: cell-based, human; settings: dose-dependent manner, FIG. 4E-4F
Procedure: Cells were collected and lysed in RIPA lysis buffer with protease and phosphatase inhibitor cocktail (Thermo Scientific, Waltham, MA, USA), the protein was quantified using the Bradford method (Bio-Rad Protein Assay kit). The antigen—antibody complex was detected with Trident Femto Western HRP substrate (Gene-Tex, Irvine, CA, USA). Specific protein bands were visualized using ChemiDoc XRS ♭ molecular imager (Bio-Rad, Hercules, CA, USA).
as §3

[6] = target: BRD9 (Homo sapiens, UniProt Q9H8M2); settings: cited from earlier work
[7] = test system: SK-UT-1 cells; assay: qRT-PCR validation of cell cycle and apoptosis genes; assay type: cell-based, human; settings: iBRD9 treatment
Procedure: Total RNA was isolated using Trizol reagent (Invitrogen, Carlsbad, CA, USA). The concentration of total RNA was determined using NanoDrop (Thermo Scientific, Waltham, MA, USA). One microgram of total RNA from each sample was reverse transcribed to complementary DNA (cDNA) using the High-Capacity cDNA Transcription Kit (Thermo Scientific, Waltham, MA, USA). Quantitative real-time polymerase chain reaction (qRT-PCR) was performed to determine the messenger RNA (mRNA) expression of several genes listed with their primer sequences in Table 2. The real-time PCR reactions were performed using CFX96 PCR instrument using SYBR Green Supermix (Bio-Rad, Hercules, CA, USA). 18S was used as an internal control. The results are presented as relative gene expression using CFX Maestro™. The assay was performed three times in triplicate.
Quantitative real-time PCR was performed to determine the mRNA expression of genes as described previously. An equal amount of cDNA from each sample was added to the Master mix containing appropriate primer sets and SYBR green supermix (Bio-Rad) in a 20 μL reaction volume. All samples were analyzed in triplicates. Real-time PCR analyses were performed using a Bio-Rad CFX96. Cycling conditions included denaturation at 95° C. for 2 min followed by 40 cycles of 95° C. for 5 s and 60° C. for 30 seconds then 65° C. for 5 seconds. […]

[8] = test system: SK-UT-1 cells; assay: RNA-sequencing of TP-472 vs control treated SK-UT-1 cells; assay type: cell-based, human
Procedure: To determine the mechanism underlying the inhibitory effect of BRD9 inhibition on the uLMS, the SK-UT-1 cells were treated with iBRD9 TP-472 (5 μM) for 48 h. RNA was isolated using Trizol. RNA quality and quantity were assessed using the Agilent bio-analyzer. Strand-specific RNA-SEQ libraries were prepared using a TruSEQ total RNA-SEQ library protocol (Illumina provided). Library quality and quantity were assessed using the Agilent bio-analyzer and libraries were sequenced using an Illumina NovaSEQ6000 (illumine provided reagents and protocols).
A variety of R packages was used for this analysis. All graphics and data wrangling were handled using the tidyverse suite of packages. All packages used are available from the Comprehensive R Archive Network (CRAN), the Bioconductor project, or Github. The reads were mapped to the human reference transcriptome using STAR, version 2.6.1d (GitHub, Inc., San Francisco, CA, USA). The quality of raw reads, as well as the results of STAR mapping, are generated using fastqc and multiqc. Raw reads were mapped to the human reference transcriptome using Salmon, version 1.4.0. After reading mapping with Salmon, the tximport software package (Bioconductor project, accessed on 27 Oct. 2021) was used to read Salmon outputs into the R environment. Annotation data from Gencode V34 was used to summarize data from transcript-level to gene-level.
For Parsimonious gene correlation network analysis (PGCNA), normalized matrix of DEGs (Adjusted p-Values<0.05 and […]; n=3583) and the top 80% of the most variance genes across samples (n=10,848) were used to network construction. The matrix was used to calculate Spearman rank correlations for all gene pairs using the Python PGCNA2 package. For each gene (row) in a correlation matrix, only the three most correlated edges per gene were retained. The correlation matrices were clustered 100 times using the fast unfolding of communities in a large network's algorithm and the best (judged by modularity score) were used for downstream analysis. Gephi package with the ForceAt-1as2 layout method was used to visualize the network. Enrichment analyses were performed using the Enrichr web server (Ma′ayan lab at Icahn School of Medicine at Mount Sinai, accessed on 10 Jan. 2022) through EnrichR package in R software. Top biological process GO terms with the false discovery rate (FDR)[…] were analyzed using REVIGO to summarize and find a representative subset of the terms. STRING database (accessed on 27 Apr. 2022), which is the online search tool to protein-protein network (PPI) construction, was used to reconstruct each modules network (A combined score≥0.4 of PPI pairs was considered significant), then the Cytoscape software was employed to analyze the obtained networks. In addition, the Venn diagram online tool provided by VIB and Ghent University (accessed on 27 Apr. 2022) was used to investigate the intersection of DEGs and selected modules.
To determine the mechanistic action of TP-472 inhibition on uLMS cells, RNA-sequencing analysis was performed in control and TP-472 treated cells (n=4 each).

[9] = test system: melanoma; settings: by suppressing ECM-mediated oncogenic signaling and inducing apoptosis; cited from earlier work
[10] = target: CECR2 BRD (Homo sapiens, UniProt Q9BXF3); settings: within cells; cited from earlier work
[11] = test system: SW48 colon cancer cells; settings: cited from earlier work
[12] = test system: endometrial cancer cells; settings: cited from earlier work
[13] = SK-UT-1 cells, 5 μM, 48 h, n=4 each
[14] = module I, SK-UT-1, TP-472 5 μM 48 h vs control
[15] = module III, SK-UT-1, TP-472 5 μM 48 h vs control
[16] = module VI, SK-UT-1, TP-472 5 μM 48 h vs control
[17] = module VII, SK-UT-1, TP-472 5 μM 48 h vs control

Sequence of CECR2 BRD (Q9BXF3 434-538 limits assumed): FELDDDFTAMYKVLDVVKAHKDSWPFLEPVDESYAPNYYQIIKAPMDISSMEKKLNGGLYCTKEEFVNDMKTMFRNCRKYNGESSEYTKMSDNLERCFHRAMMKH
Sequence of BRD9 (Q9H8M2 whole entry): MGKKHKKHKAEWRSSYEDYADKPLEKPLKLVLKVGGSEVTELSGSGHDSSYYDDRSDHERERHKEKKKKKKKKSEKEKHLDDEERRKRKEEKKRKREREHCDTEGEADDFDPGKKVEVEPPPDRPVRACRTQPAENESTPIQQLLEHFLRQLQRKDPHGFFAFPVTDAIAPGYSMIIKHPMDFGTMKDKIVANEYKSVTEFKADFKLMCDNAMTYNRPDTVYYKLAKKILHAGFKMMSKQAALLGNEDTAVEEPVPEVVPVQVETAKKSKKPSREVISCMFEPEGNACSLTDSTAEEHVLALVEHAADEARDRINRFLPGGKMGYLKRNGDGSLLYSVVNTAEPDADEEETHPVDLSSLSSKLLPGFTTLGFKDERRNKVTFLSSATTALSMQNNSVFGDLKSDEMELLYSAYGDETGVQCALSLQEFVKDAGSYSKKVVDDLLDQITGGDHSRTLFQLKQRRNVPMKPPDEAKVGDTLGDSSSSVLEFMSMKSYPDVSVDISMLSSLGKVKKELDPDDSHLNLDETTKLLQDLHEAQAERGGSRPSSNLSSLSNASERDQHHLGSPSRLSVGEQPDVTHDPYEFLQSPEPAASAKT

For Cc1sc2c(c1C)C(c1ccc(Cl)cc1)=N[C@@H](CC(=O)OC(C)(C)C)c1nnc(C)n1-2 [JQ1], which “tumor growth in ovarian cancer” value [1] is on record?
The value was “suppresses tumor growth”.

And the “IL-6 and TNF levels” value [2]?
The value was “reduce”.

With CC(=O)c1cc(-c2cc(C(=O)NC3CC3)ccc2C)c2ncccn12 [TP-472] as the compound, how does the “effect on proliferation of SK-UT-1 cells” value [3] read?
The value was “dose-dependent inhibitory effect”.

What about the “effect on proliferation of MES-SA cells” value [4] of the same compound?
The value was “dose-dependent inhibitory effect”.

What about the “protein levels of BCL-2” value [5] of the same compound?
Its value is “significantly decreased”.

What about the “potency for BRD9” value [6] of the same compound?
The value was “high potency”.

What about the “expression of CDKN1A by q-PCR” value ([7]; FIG. 7G) of the same compound?
Its value is “significant increase”.

And the “expression of BAK1 by q-PCR” value ([7]; FIG. 7H)?
Its value is “significant increase”.

What about the “mRNA levels of BAK” value ([8]; RNA-seq, treated SK-UT-1 cells vs control, FIG. 7B) of the same compound?
Its value is “significantly increased”.

What about the CDKN1A expression ([8]; RNA-seq, treated uLMS cells vs control, FIG. 7A) of the same compound?
The CDKN1A expression was “significantly higher”.

What about the “expression of AKT1” value ([8]; RNA-seq, treated uLMS cells, FIG. 7C) of the same compound?
The value was “markedly decreased”.

What about the “expression of AKT2” value ([8]; RNA-seq, treated uLMS cells, FIG. 7D) of the same compound?
Its value is “significantly decreased”.

What about the “expression of Gill” value ([8]; RNA-seq, uLMS cells, FIG. 7E) of the same compound?
The value was “significantly decreased”.

What about the GLI2 expression ([8]; RNA-seq, uLMS cells, FIG. 7F) of the same compound?
Its GLI2 expression is “markedly reduced”.

What about the “differentially expressed genes (DEGs), down” value [8, 13] of the same compound?
The value was 1741.

And the “differentially expressed genes (DEGs), total” value [8, 13]?
Its value is 3583.

What about the “differentially expressed genes (DEGs), up” value [8, 13] of the same compound?
The value was 1842.

What about the “FC of hub gene CEBPB” value [8, 14] of the same compound?
The value was 1.75.

And the “FC of hub gene EGR1” value [8, 14]?
The value was 1.63.

And the “FC of hub gene FOS” value [8, 14]?
Its value is 1.50.

What about the “FC of hub gene GATA2” value [8, 14] of the same compound?
The value was 2.26.

And the “FC of hub gene GRIN1” value [8, 14]?
The value was 2.54.

What about the “FC of hub gene MYC” value [8, 14] of the same compound?
Its value is 1.56.

What about the “FC of hub gene SHH” value [8, 14] of the same compound?
The value was 4.66.

What about the “FC of hub gene SOX9” value [8, 14] of the same compound?
Its value is 2.02.

And the “FC of hub gene STX1A” value [8, 14]?
The value was 1.78.

And the “FC of hub gene TERT” value [8, 14]?
Its value is 1.68.

And the “FC of hub gene CCT2” value [8, 15]?
The value was 1.61.

What about the “FC of hub gene CYCS” value [8, 15] of the same compound?
Its value is 1.86.

What about the “FC of hub gene EIF2S1” value [8, 15] of the same compound?
Its value is 1.52.

What about the “FC of hub gene HSPA8” value [8, 15] of the same compound?
Its value is 1.75.

And the “FC of hub gene IMP3” value [8, 15]?
The value was 1.62.

And the “FC of hub gene NIP7” value [8, 15]?
Its value is 1.92.

What about the “FC of hub gene NOP56” value [8, 15] of the same compound?
The value was 1.64.

And the “FC of hub gene NOP58” value [8, 15]?
The value was 1.74.

What about the “FC of hub gene PA2G4” value [8, 15] of the same compound?
Its value is 1.55.

What about the “FC of hub gene RPL26L1” value [8, 15] of the same compound?
The value was 1.58.

And the “FC of hub gene BYSL” value [8, 16]?
The value was 1.75.

And the “FC of hub gene CCND1” value [8, 16]?
The value was 2.21.

And the “FC of hub gene FN1” value [8, 16]?
Its value is 2.40.

And the “FC of hub gene HRAS” value [8, 16]?
Its value is 1.60.

What about the “FC of hub gene JUN” value [8, 16] of the same compound?
The value was 3.13.

What about the “FC of hub gene KIT” value [8, 16] of the same compound?
Its value is 20.37.

What about the “FC of hub gene LEF1” value [8, 16] of the same compound?
Its value is 6.22.

What about the “FC of hub gene MRTO4” value [8, 16] of the same compound?
Its value is 2.16.

What about the “FC of hub gene PDCD11” value [8, 16] of the same compound?
Its value is 1.69.

And the “FC of hub gene RRP9” value [8, 16]?
Its value is 2.71.

What about the “FC of hub gene CDK1” value [8, 17] of the same compound?
Its value is −1.56.

What about the “FC of hub gene CHEK2” value [8, 17] of the same compound?
Its value is −1.69.

And the “FC of hub gene FGF2” value [8, 17]?
The value was −1.56.

And the “FC of hub gene HLTF” value [8, 17]?
Its value is −1.78.

And the “FC of hub gene MIS18BP1” value [8, 17]?
Its value is −1.53.

What about the “FC of hub gene STAG2” value [8, 17] of the same compound?
The value was −1.51.

And the “FC of hub gene TIA1” value [8, 17]?
Its value is −1.60.

What about the “FC of hub gene TOP2A” value [8, 17] of the same compound?
Its value is −1.52.

What about the “FC of hub gene TOP2B” value [8, 17] of the same compound?
The value was −1.52.

What about the “FC of hub gene WDHD1” value [8, 17] of the same compound?
Its value is −1.52.

And the “tumor growth in melanoma” value [9]?
Its value is “blocked tumor growth”.

With CCCS(=O)(=O)c1nc(NC2CC2)cc(-c2ccc3c(ccn3C3CC(C)(C)NC(C)(C)C3)c2)n1 [NVS-CECR2-1] as the compound, how does the “chromatin binding of CECR2 BRD” value [10] read?
The value was “inhibits”.

And the “cytotoxic activity against human cancer cells” value [11]?
Its value is “killing SW48 colon cancer cells by inducing apoptosis”.

With O=C1NC(=NCc2cccs2)S/C1=C\c1ccc2ncccc2c1 [RO3306] as the compound, how does the “cell apoptosis and cell cycle in endometrial cancer cells” value [12] read?
The value was “induced cell apoptosis and caused G2/M phase arrest”.
